Where two headings read alike, the source gives them in different places.
Legend:
[1] = log P by HPLC on a reversed-phase column (C 18), EEC Directive 79/831 Annex V.A8; assay type: physicochemical; conditions: for chromatographic logP: reversed-phase HPLC column (C 18)
Excerpt: Called log P (HCOOH) in the table.
Called log P (neutral) in the table.

[2] = test system: unfed adult cat fleas (Ctenocephalides felis); experiment: Ctenocephalides felis - oral test; assay type: in vivo; conditions: application rate 100 ppm in citrated cattle blood; after 2 days
Description: (§1) Solvent: dimethyl sulphoxide
For the purpose of production of a suitable active compound formulation, 10 mg of active compound are mixed with 0.5 ml of dimethyl sulphoxide. Dilution with citrated cattle blood gives the desired concentration.
About 20 unfed adult cat fleas (Ctenocephalides felis) are placed into a chamber which is closed at the top and bottom with gauze. A metal cylinder whose bottom end is closed with parafilm is placed onto the chamber. The cylinder contains the blood/active compound formulation, which can be imbibed by the fleas through the parafilm membrane.
After 2 days, the kill in % is determined. 100% means that all of the fleas have been killed; 0% means that none of the fleas have been killed.

[3] = test system: larvae of the mustard beetle (Phaedon cochleariae); experiment: Phaedon cochleariae - spray test; assay type: in vivo; conditions: after 7 days
Description: Solvent: 78.0 parts by weight of acetone • • 1.5 parts by weight of dimethylformamide
Emulsifier: alkylaryl polyglycol ether
(§2) To produce a suitable active compound formulation, 1 part by weight of active compound is dissolved with the stated parts by weight of solvent and made up with water containing an emulsifier concentration of 1000 ppm until the desired concentration is attained. To produce further test concentrations, the formulation is diluted with emulsifier-containing water.
Discs of Chinese cabbage leaves (Brassica pekinensis) are sprayed with an active compound formulation of the desired concentration and, after drying, populated with larvae of the mustard beetle (Phaedon cochleariae).
After 7 days, the efficacy in % is determined. 100% means that all the beetle larvae have been killed and 0% means that none of the beetle larvae have been killed.

[4] = test system: caterpillars of the armyworm (Spodoptera frugiperda); experiment: Spodoptera frugiperda - spray test; assay type: in vivo; conditions: maize leaf discs, after 7 days
Description: Solvent: 78.0 parts by weight of acetone • • 1.5 parts by weight of dimethylformamide Emulsifier: alkylaryl polyglycol ether […] To produce further test concentrations, the formulation is diluted with emulsifier-containing water. Leaf discs of maize (Zea mays) are sprayed with an active compound preparation of the desired concentration and, after drying, populated with caterpillars of the armyworm (Spodoptera frugiperda).

[5] = test system: L1 larvae of the Australian sheep blowfly (Lucilia cuprina); experiment: Lucilia cuprina test; assay type: in vivo; conditions: application rate 100 ppm; after 2 days
Description: as §1
To produce a suitable active compound formulation, 10 mg of active compound are mixed with 0.5 ml of dimethyl sulphoxide, and the concentrate is diluted with water to the desired concentration.
About 20 L1 larvae of the Australian sheep blowfly (Lucilia cuprina) are transferred into a test vessel containing minced horsemeat and the active compound formulation of the desired concentration.
After 2 days, the kill in % is determined. 100% means that all the larvae have been killed; 0% means that no larvae have been killed.

[6] = test system: green peach aphid (Myzus persicae); experiment: Myzus persicae - spray test (Chinese cabbage leaf discs); assay type: in vivo; conditions: after 5 days
Description: Solvent: 78 parts by weight of acetone • • 1.5 parts by weight of dimethylformamide Emulsifier: alkylaryl polyglycol ether
as §2
Discs of Chinese cabbage leaves (Brassica pekinensis) infested by all stages of the green peach aphid (Myzus persicae) are sprayed with an active compound formulation of the desired concentration.
After 5 days, the efficacy in % is determined. 100% means that all the aphids have been killed and 0% means that none of the aphids have been killed.

[7] = acidic range, pH 2.7, 0.1% aqueous formic acid/acetonitrile, 55° C.
[8] = neutral range, pH 7.8, 0.001 molar aqueous ammonium hydrogencarbonate/acetonitrile, 55° C.

Work on `CCS(=O)(=O)c1ccc(-c2cn(C)c3ccccc23)nc1-c1nc2cc(C(F)(F)F)ncc2n1C` [Example I-1, 2-[3-(Ethylsulphonyl)-6-(1-methyl-1H-indol-3-yl)pyridin-2-yl]-3-methyl-6-(trifluoromethyl)-3H-imidazo[4,5-c]pyridine] yielded a chromatographic logP ([1]; acidic range, pH 2.7, 0.1% aqueous formic acid/acetonitrile, 55° C., read-out: LOGP_HCOOH (log P (HCOOH))) of 3.55 and a chromatographic logP ([1]; neutral range, pH 7.8, 0.001 molar aqueous ammonium hydrogencarbonate/acetonitrile, 55° C., read-out: LOGP_NEUTRAL (log P (neutral))) of 3.45.
For `CCS(=O)(=O)c1ccc(-c2cc3cc(C#N)ccc3[nH]2)nc1-c1nc2cc(C(F)(F)F)ncc2n1C` [Example I-3], the “efficacy (kill)” value [2] was 95%, the efficacy ([3]; application rate 100 g/ha) was 100% and the efficacy ([3]; application rate 500 g/ha) was 100%. The “LOGP_HCOOH (log P (HCOOH))” value ([1]; pH 2.7) was 3.18, the “LOGP_NEUTRAL (log P (neutral))” value ([1]; pH 7.8) was 3.08 and the efficacy ([4]; application rate 100 g/ha) was 100%. For the same compound, the efficacy ([4]; application rate 500 g/ha) was 83% and the “efficacy (kill)” value [5] was 100%.
With `CCS(=O)(=O)c1ccc(-c2cc3ccccc3n2C)nc1-c1nc2cc(C(F)(F)F)ncc2n1C` [Example I-4] the “LOGP_HCOOH (log P (HCOOH))” value ([1]; pH 2.7) was 3.90, the “LOGP_NEUTRAL (log P (neutral))” value ([1]; pH 7.8) was 3.83 and the “efficacy (kill)” value [5] was 90%.
For `CCS(=O)(=O)c1ccc(-n2ncc3ccncc32)nc1-c1nc2cc(C(F)(F)F)ncc2n1C` [Example I-7], the efficacy ([3]; application rate 100 g/ha) was 100% and the efficacy ([3]; application rate 500 g/ha) was 100%.
For `CCS(=O)(=O)c1ccc(-n2ncc3cccc(Cl)c32)nc1-c1nc2cc(C(F)(F)F)ncc2n1C` [Example I-8], the “LOGP_HCOOH (log P (HCOOH))” value [1, 7] was 3.44 and the “LOGP_NEUTRAL (log P (neutral))” value [1, 8] was 3.34.
For `CCS(=O)(=O)c1ccc(-n2ncc3cc(Cl)ccc32)nc1-c1nc2cc(C(F)(F)F)ncc2n1C` [Example I-9], the “LOGP_HCOOH (log P (HCOOH))” value ([1]; pH 2.7) was 4.03 and the “LOGP_NEUTRAL (log P (neutral))” value ([1]; pH 7.8) was 4.03.
With `CCS(=O)(=O)c1ccc(-n2cc3c(Cl)cc(C(F)(F)F)cn3c2=O)nc1-c1nc2cc(C(F)(F)F)ncc2n1C` [Example I-12] the efficacy ([6]; application rate 100 g/ha) was 90%, the efficacy ([6]; application rate 500 g/ha) was 90% and the efficacy ([3]; application rate 100 g/ha) was 100%. For the same compound, the efficacy ([3]; application rate 500 g/ha) was 100%, the “LOGP_HCOOH (log P (HCOOH))” value ([1]; pH 2.7) was 4.27 and the “LOGP_NEUTRAL (log P (neutral))” value ([1]; pH 7.8) was 4.18. It also gave an efficacy ([4]; application rate 100 g/ha) of 100% and an efficacy ([4]; application rate 500 g/ha) of 100%.
In the case of `CC[S+]([O-])c1ccc(-n2cc3cccnc3n2)nc1-c1nc2cc(C(F)(F)F)ncc2n1C` (stereo not shown) [Example I-13], the “LOGP_HCOOH (log P (HCOOH))” value ([1]; pH 2.7) is reported as 2.46 and the “LOGP_NEUTRAL (log P (neutral))” value ([1]; pH 7.8) is reported as 2.45.
With `CCS(=O)(=O)c1ccc(-c2ccc3cn(C)nc3c2)nc1-c1nc2cc(C(F)(F)F)ncc2n1C` [Example I-14] the efficacy ([6]; application rate 500 g/ha) was 70%, the “LOGP_HCOOH (log P (HCOOH))” value ([1]; pH 2.7) was 2.71 and the “LOGP_NEUTRAL (log P (neutral))” value ([1]; pH 7.8) was 2.65. For the same compound, the efficacy ([4]; application rate 100 g/ha) was 100% and the efficacy ([4]; application rate 500 g/ha) was 100%.
In the case of `CCS(=O)(=O)c1ccc(-c2cccc3nn(C)cc23)nc1-c1nc2cc(C(F)(F)F)ncc2n1C` [Example I-16], the efficacy ([3]; application rate 500 g/ha) is reported as 83%, the “LOGP_HCOOH (log P (HCOOH))” value ([1]; pH 2.7) is reported as 2.73 and the “LOGP_NEUTRAL (log P (neutral))” value ([1]; pH 7.8) is reported as 2.67.
`CCS(=O)(=O)c1ccc(-n2ccc3nccc(Cl)c32)nc1-c1nc2cc(C(F)(F)F)ncc2n1C` [Example I-19] gave an efficacy ([6]; application rate 100 g/ha) of 90%, an efficacy ([6]; application rate 500 g/ha) of 70% and an efficacy ([3]; application rate 100 g/ha) of 100%. For the same compound, the efficacy ([3]; application rate 500 g/ha) was 100%, the “LOGP_HCOOH (log P (HCOOH))” value ([1]; pH 2.7) was 2.51 and the “LOGP_NEUTRAL (log P (neutral))” value ([1]; pH 7.8) was 2.69.
In the case of `CCS(=O)(=O)c1ccc(-n2ccc3ncccc32)nc1-c1nc2cc(C(F)(F)F)ncc2n1C` [Example I-20], the “LOGP_HCOOH (log P (HCOOH))” value [1, 7] is reported as 1.75 and the “LOGP_NEUTRAL (log P (neutral))” value [1, 8] is reported as 2.47.
For `CCS(=O)(=O)c1ccc(-n2ccc3ccc(Cl)cc32)nc1-c1nc2cc(C(F)(F)F)ncc2n1C` [Example I-23], the efficacy ([6]; application rate 500 g/ha) was 90%, the “LOGP_HCOOH (log P (HCOOH))” value ([1]; pH 2.7) was 4.04 and the “LOGP_NEUTRAL (log P (neutral))” value ([1]; pH 7.8) was 4.04.
For `CCS(=O)(=O)c1ccc(-n2ccc3cc(Cl)ccc32)nc1-c1nc2cc(C(F)(F)F)ncc2n1C` [Example I-25], the “LOGP_HCOOH (log P (HCOOH))” value [1, 7] was 4.10 and the “LOGP_NEUTRAL (log P (neutral))” value [1, 8] was 4.09.
With `CCS(=O)(=O)c1ccc(-n2ccc3ccccc32)nc1-c1nc2cc(C(F)(F)F)ncc2n1C` [Example I-26] the “LOGP_HCOOH (log P (HCOOH))” value [1, 7] was 3.72 and the “LOGP_NEUTRAL (log P (neutral))” value [1, 8] was 3.65.
